Measured values as given in the NIST ThermoML archive (doi:10.1016/j.jct.2010.05.009).

Legend:
[1] = refractive index (Na D-line) (dimensionless); xn = mol fraction of the nth substance listed; details: 101 kPa, Liquid, Standard Abbe refractometry
[2] = xn = mol fraction of the nth substance listed; details: 101 kPa, Liquid; for viscosity: Capillary tube (Ostwald / Ubbelohde) method; for mass density: Vibrating tube method
[3] = refractive index (Na D-line) (dimensionless); details: 101.33 kPa, Liquid, Standard Abbe refractometry
[4] = 101 kPa, Liquid; for viscosity: Capillary tube (Ostwald / Ubbelohde) method; for mass density: Vibrating tube method

C1CCOC1 [tetrahydrofuran] + CCC(C)(C)O
x2 = 0
Details | mass density, 288.15 K [kg/m3] | mass density, 298.15 K [kg/m3] | mass density, 308.15 K [kg/m3] | refractive index, 288.15 K | refractive index, 298.15 K | refractive index, 308.15 K | viscosity, 288.15 K [mPa·s] | viscosity, 298.15 K [mPa·s] | viscosity, 308.15 K [mPa·s]
[1] | – | – | – | 1.4086 | 1.4037 | 1.3987 | – | – | –
[2] | 892.92 | 882.03 | 871.01 | – | – | – | 0.4991 | 0.454 | 0.4172

C1CCOC1 [tetrahydrofuran] + CCCN
x1 = 1
Details | mass density, 288.15 K [kg/m3] | mass density, 298.15 K [kg/m3] | mass density, 308.15 K [kg/m3] | refractive index, 288.15 K | refractive index, 298.15 K | refractive index, 308.15 K | viscosity, 288.15 K [mPa·s] | viscosity, 298.15 K [mPa·s] | viscosity, 308.15 K [mPa·s]
[1] | – | – | – | 1.4086 | 1.4037 | 1.3987 | – | – | –
[2] | 892.92 | 882.03 | 871.01 | – | – | – | 0.4991 | 0.454 | 0.4172

C1CCOC1 [tetrahydrofuran]
Details | mass density, 288.15 K [kg/m3] | mass density, 298.15 K [kg/m3] | mass density, 308.15 K [kg/m3] | refractive index, 288.15 K | refractive index, 298.15 K | refractive index, 308.15 K | viscosity, 288.15 K [mPa·s] | viscosity, 298.15 K [mPa·s] | viscosity, 308.15 K [mPa·s]
[3] | – | – | – | 1.4086 | 1.4037 | 1.3987 | – | – | –
[4] | 892.92 | 882.03 | 871.01 | – | – | – | 0.4991 | 0.454 | 0.4172

CCC(C)(C)O [2-methylbutan-2-ol]
Details | mass density, 288.15 K [kg/m3] | mass density, 298.15 K [kg/m3] | mass density, 308.15 K [kg/m3] | refractive index, 288.15 K | refractive index, 298.15 K | refractive index, 308.15 K | viscosity, 288.15 K [mPa·s] | viscosity, 298.15 K [mPa·s] | viscosity, 308.15 K [mPa·s]
[3] | – | – | – | 1.4062 | 1.4015 | 1.3968 | – | – | –
[4] | 814.01 | 804.88 | 795.52 | – | – | – | 5.867 | 3.478 | 2.504

CCCN [propan-1-amine]
Details | mass density, 288.15 K [kg/m3] | mass density, 298.15 K [kg/m3] | mass density, 308.15 K [kg/m3] | refractive index, 288.15 K | refractive index, 298.15 K | refractive index, 308.15 K | viscosity, 288.15 K [mPa·s] | viscosity, 298.15 K [mPa·s] | viscosity, 308.15 K [mPa·s]
[3] | – | – | – | 1.3899 | 1.3844 | 1.3784 | – | – | –
[4] | 721.57 | 711.08 | 700.4 | – | – | – | 0.3851 | 0.3585 | 0.3222

CCC(C)(C)O [2-methylbutan-2-ol] + CCCN
x1 = 1
Details | mass density, 288.15 K [kg/m3] | mass density, 298.15 K [kg/m3] | mass density, 308.15 K [kg/m3] | refractive index, 288.15 K | refractive index, 298.15 K | refractive index, 308.15 K | viscosity, 288.15 K [mPa·s] | viscosity, 298.15 K [mPa·s] | viscosity, 308.15 K [mPa·s]
[1] | – | – | – | 1.4062 | 1.4015 | 1.3968 | – | – | –
[2] | 814.01 | 804.88 | 795.52 | – | – | – | 5.867 | 3.478 | 2.504
